Legend:
[1] = T1 and T2 relaxation rates of H in D2O concentration phantom; format: physicochemical; details: FIG. 1A
Method: The R1 and R2 in the vertical axis are the relaxation rates of T1 and T2 relaxation, respectively.
In an experimental phantom with D2O concentration as c, respective concentrations of H2O, HDO, and D2O are (1-c)^2, 2c(1-c), and c^2, where a part of c of H is replaced by D. Population ratio of H coupled H and D coupled H is calculated as (1-c):c. The observed T1 and T2 relaxation rates are the population weighted sums of all H. Since the D coupled H has slower relaxation rates than H coupled H, we observe linear relations of R1 and R2 as changing the D2O concentration c in FIG. 1A and FIG. 1B.

[2] = amount of injected D2O less than 20% of body weight; cited from earlier work
[3] = Dynamic H MRI of rat brain after intravenous injection of contrast agent; format: in vivo, Sprague-Dawley rats; details: whole brain ROI, 1.5 mL D2O into tail vein (about 0.6% of body weight), 4.7 T
Method: Please refer to FIG. 2A and FIG. 2B, which are views showing consecutive MRI images and a curve of signal change. As shown in the figures, 6 normal adult Sprague-Dawley rats (˜200-310 g) are used. Each rat is anesthetized with 1.5% isoflurane/air via a nose cone with respiratory monitoring. Tail vein catheterization is performed with a 0.8-m long polyethylene tube connected to a 23-gaude needle, where a dead volume in a catheter is about 0.2 ml. On operating, 1.5 mL of D2O (99.8%, Cambridge Isotope, Woburn, Mass.) is manually injected into tail vein. After injecting, the catheter is flushed with 0.5 mL 0.9% NaCl solution. For comparison, an additional 0.2 mL Gd-DTPA (Magnevist) is manually injected into tail vein while D2O scanning is completed after 10 min. After injection, the catheter is flushed with 0.5 mL 0.9% NaCl solution. In vivo brain imaging is performed in prone position. All images are acquired on a 4.7 animal MRI scanner (Bruker Biospec 47/40). The parameters for the dynamic images are as follow: TR/TE/θ=1000 ms/30 ms/90 degree, FOV=2.9 cm, matrix size=128×128, and slice thickness=1 mm. Averaged signals from whole brain are portrayed as a signal-intensity curve. For comparison, the signal-intensity curve is transferred into a percentage change curve according to the following formula: Therein, S(t) is a signal at time t and S0 is a signal before using the contrast agent. […]

[4] = patients having kidney diseases; cited from earlier work

## [2H]O[2H] [D2O, deuterium oxide]
[1]
  T1 relaxation rate (R1) of H versus D2O concentration: linearly decreased
[2]
  toxicity to animals: not toxic
[3]
  signal change: 10%

## O=C([O-])CN(CCN(CC(=O)[O-])CC(=O)O)CCN(CC(=O)[O-])CC(=O)O.[Gd+3] [Gd-DTPA]
[4]
  nephrogenic systemic fibrosis (NSF): possible to cause nephrogenic systemic fibrosis (NSF)
